From patent US20190255019A1, “NOVEL DOSAGE REGIMEN” (Biogen MA Inc., priority 2016, published 2019)
Where two headings read alike, the source gives them in different places.

Key:
[1] = 150 mg TID dosage study, pharmacokinetics; settings: both sexes, human, in vivo
Protocol: A clinical trial was conducted to evaluate certain pharmacokinetic parameters of the compound of Example 1 when dosed at 150 mg TID for seven days. 15 young males and females aged 18 to 45 were scheduled to received ether the compound of Example 1 at 150 mg TID during a first period of 8 days followed by placebo during a second period of 8 days; or placebo during the first period and the compound of Example 1 during the second period.

healthy participants = assay: Phase 1 cross-over ambulatory blood pressure monitoring (ABPM) study, 300/400 mg BID; type: in vivo, human; settings: for Observations with DBP: Change > 10 and absolute value > 80 mmHg / Observations with SBP: Change > 10 and absolute value > 130 mmHg: outpatient, number of observations (%)
Protocol: This study reports the results of a Phase 1, randomized cross-over trial designed to assess inpatient and outpatient ambulatory blood pressure monitoring (ABPM) in healthy volunteers treated with the compound of Example 1 (BIIB074) for 36 days.
This was a Phase 1, randomized, double-blind, placebo-controlled, repeat dose, 2-period cross-over study to investigate the effect of BIIB074 300-400 mg bid on ambulatory blood pressure (ABP) in healthy participants (FIG. 2). The study comprised: screening (to occur a maximum of 30 days before the first baseline assessment); two 36-day treatment periods, each preceded by a baseline visit and separated by a 7-day washout (to minimize possible carry over effects); and a follow-up period of 7-14 days after last dose. Prior to this study, no females had received BIIB074; for this reason, a single dose BIIB074 session at the dose level of 400 mg was also conducted in female participants one week prior to the period 1 baseline visit. Following this session, some participants were predicted to exceed the predefined PK limit (area under the plasma concentration-time curve [AUC] 97 μg·h/mL) when receiving 400 mg bid at steady state. Therefore, in the subsequent phases of the study, all female participants received a lower dose of 300 mg bid (males received 400 mg bid).
The primary endpoint was change in 24 h average SBP and DBP from baseline to day 36 as determined by ABPM. Secondary outcome measures included: change in 24 h average SBP and DBP from baseline to days 4 and 15; change in average SBP and DBP within a 12 h dosing interval from baseline to days 14 and 35 (inpatient); change in 24 h average ambulatory heart rate from baseline to days 4, 15 and 36; proportion of participants whose 24 h SBP and DBP increased by <5, 5-9, 10-14, 15-19, and >20 mm Hg compared with baseline; PK parameters of BIIB074 following a single oral dose in healthy female participants, and following repeated oral doses given twice daily to healthy male and female participants; PK/pharmacodynamic (PD) analyses to examine the correlation between ABP and plasma levels and/or metrics of the systemic exposure of BIIB074.
ABP was collected over 24 hours on an outpatient basis at baseline and at days 4, 15 and 36, and over 12 hours on an inpatient basis at baseline, and at days 14 and 35. The ABPM device was placed on the non-dominant arm (except in clinical situations that prohibited measuring BP in the non-dominant arm). BP and heart rate were measured every 15 minutes.
Non-inferiority was based on the one-sided 95% confidence interval (CI) for BIIB074-placebo excluding […] in SBP or DBP. It was planned to recruit approximately 60 participants in order to obtain a minimum of 48 evaluable for ABPM during the repeat dose phase, for at least 90% power, assuming a within-subject standard deviation (SDw) of 8.21 mmHg.
ABPM data were analyzed using a repeated measures mixed effects model, whereby fixed effects were treatment, day, treatment*day, period, average baseline*day, period adjusted baseline*day, sex and treatment*sex; random effect was subject; and repeated effect was day. All summary statistics were carried out using SAS 8.02 for UNIX running under the Harmonisation of Analysis and Reporting Program (HARP) environment. PK parameters were calculated by standard non-compartmental analysis according to working practices and using Wn Nonlin Pro v. 5.2.

[2] = Carbamazepine interaction study, BIIB074 steady-state PK; type: in vivo, human; settings: for AUC / Cmax: human, in vivo; for AUC: read-out: AUC(0-tau) Adj Geo Mean; for Cmax: read-out: Cmax Adj Geo Mean
Protocol: The interaction between BIIB074 and carbamazepine (CBZ) was investigated in a double-blind, randomized, placebo-controlled, 3-period, phase-1 study. Healthy subjects were randomized by sex to either CBZ (100 mg twice daily [BID] days 1-3, 200 mg BID days 4-21) or placebo (BID days 1-21). During days 16-21, subjects in both groups also received BIIB074 150 mg 3-times daily (TID). Thereafter, treatment with CBZ or placebo was discontinued, while dosing with BIIB074 was continued for another 7 days (days 22-28). The primary objective was to evaluate the effect of CBZ on BIIB074 steady-state PK; a secondary objective was to observe BIIB074 PK recovery following CBZ discontinuation.

rats = assay: Preclinical safety pharmacology, tyramine-induced hypertension; type: in vivo, rat; settings: data not shown
Text: The 36 day treatment duration in this study was rationally designed to determine whether tolerance developed for any potential effects of BIIB074 on SBP or DBP, since BP effects resolved by day 28 in the earlier phase 1 trial. The data from this study show a slight trend towards a decrease in the BP difference between BIIB074 and placebo between day 4 and day 35, although differences were minimal at all time points. […] Thus, the body of evidence, encompassing clinical and preclinical studies, supports safety and minimal effects of BIIB074 on BP/cardiovascular parameters.

[3] = day 28, CBZ discontinued for 7 days
[4] = oral, 150 mg TID, day 28, Carbamazepine (Group 1), 7 days after CBZ discontinuation
[5] = oral, 150 mg TID, day 28, Placebo (Group 2)
[6] = oral, 150 mg, day 21, Carbamazepine (Group 1), BIIB074 150 mg TID
[7] = oral, 150 mg, day 21, Placebo (Group 2), BIIB074 150 mg TID

Cl.NC(=O)[C@@H]1CC[C@H](c2ccc(OCc3ccccc3F)cc2)N1 [Example 1, (5R)-5-(4-{[(2-Fluorophenyl)methyl]oxy}phenyl)-L-prolinamide hydrochloride]
Cmax ([1]; day 8): 2710 ng/mL | AUC(0-t) ([1]; day 8, read-out: AUC0-8): 15300 ng·h/mL | average increase of SBP over the 24 h interval (healthy participants; PK/PD, inpatient ABPM): < 2 mmHg | observations with DBP increase more than 10 mmHg and absolute value >80 mmHg (healthy participants; day 36): 6.9% | observations with SBP increase more than 10 mmHg and absolute value >130 mmHg (healthy participants; day 36): 5.0% | slight increase in change from baseline for SBP, DBP and heart rate (healthy participants; inpatient ABPM, days 14 and 35): 2.0-2.5 mmHg/bpm | observations in category increase from baseline SBP >30 mmHg (healthy participants; outpatient 24 h, day 36, 4/1249 observations): 0% | observations in category increase from baseline DBP >20 mmHg (healthy participants; outpatient 24 h, day 36, 35/1249 observations): 3% | Observations with DBP: Change > 10 and absolute value > 80 mmHg (healthy participants; day 4, 300-400 mg repeat dose): 137 (10.6%) | Observations with SBP: Change > 10 and absolute value > 130 mmHg (healthy participants; day 4, 300-400 mg repeat dose): 116 (9.0%) | Observations with DBP: Change > 10 and absolute value > 80 mmHg (healthy participants; day 15, 300-400 mg repeat dose): 109 (8.3%) | Observations with SBP: Change > 10 and absolute value > 130 mmHg (healthy participants; day 15, 300-400 mg repeat dose): 95 (7.2%) | Observations with DBP: Change > 10 and absolute value > 80 mmHg (healthy participants; day 36, 300-400 mg repeat dose): 86 (6.9%) | Observations with SBP: Change > 10 and absolute value > 130 mmHg (healthy participants; day 36, 300-400 mg repeat dose): 63 (5.0%) | overall change in SBP and DBP, outpatient and inpatient ABPM (healthy participants; repeat doses for 36 days): lack of clinically relevant change in SBP and DBP | tolerability when co-administered with CBZ ([2]; 150 mg TID): appeared well tolerated | AUC(0-tau) Ratio (%) Group 1/Group 2 ([2]; day 21): 68.4% | Cmax Ratio (%) Group 1/Group 2 ([2]; day 21): 73.7% | reduction of AUC(0-tau) by CBZ co-administration vs placebo ([2]; day 21): ~31.6% | reduction of Cmax by CBZ co-administration vs placebo ([2]; day 21): ~26.3% | AUC(0-tau) Ratio (%) Group 1/Group 2 ([2]; day 28): 75.5% | Cmax Ratio (%) Group 1/Group 2 ([2]; day 28): 78.6% | AUC(0-tau) lower than in the placebo group [2, 3]: ~24.5% | Cmax lower than in the placebo group [2, 3]: ~21.4% | AUC [2, 4]: 12100 ng·h/mL | Cmax [2, 4]: 2150 ng/mL | AUC [2, 5]: 16000 ng·h/mL | Cmax [2, 5]: 2730 ng/mL | AUC [2, 6]: 12000 ng·h/mL | Cmax [2, 6]: 2160 ng/mL | AUC [2, 7]: 17500 ng·h/mL | Cmax [2, 7]: 2930 ng/mL | median time to maximum concentration ([2]; oral, with CBZ or placebo, postdose): 1 to 1.5 h | effects on tyramine-induced hypertension (rats): no effects on tyramine-induced hypertension in rats
